Assay results reported in PubChem BioAssay AID1918940 (Molecular Pharmacology Branch, DTP, NCI, 2023).

Test system: NCI-H211 complex spheroid viability
Assay: Anticancer human tumor NCI-H211 cell line growth inhibition [LSD1];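 also: luminescent viability read after seven days of drug exposure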;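 as to viability, T/C: 100% = DMSO vehicle control viability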
Conditions: for IC50: curve of first compound; for viability, T/C: stronger effect = lower value
From the text: Multicellular complex tumor spheroid response to LSD1 Inhibitor Iadademstat in combination with a variety of drugs and investigational agents in selected tumor cell lines
The current study was undertaken to assess response to LSD1 inhibitors in combination with standard-of-care drugs and investigational agents in solid tumor complex spheroid models as well as in the K-562 leukemia. Complex spheroids include a stromal component modeled by human endothelial cells (HUVEC) and fibroblasts modeled by human mesenchymal stem cells (MSCs). The concentration ranges selected for each drug and investigational agent were based upon clinically achievable concentrations if the clinical Cmax of the agent was known.
Compounds. The drugs and investigational agents used in this study are listed on Table 1. All of the agents used, including staurosporine (NSC755774) and gemcitabine (NSC613327), were obtained from the Developmental Therapeutics Program, NCI. FDA-approved anticancer drugs are available from the NCI at http://dtp.nci.nih.gov/branches/dscb/oncology_drugset_explanation.html. Drugs and investigational agents were >95% pure by proton nuclear magnetic resonance (NMR) and liquid chromatography/mass spectrometry (LC/MS). Stock solutions were prepared at 400x in DMSO, stored at -70 degrees C, and diluted in fresh medium prior to their use. The final concentration of DMSO in cell culture wells never exceeded 0.25% (v/v). The FDA-approved anticancer drug set is available from the Developmental Therapeutics Program at https://dtp.cancer.gov/organization/dscb/obtaining/available_plates.htm. All drugs and investigational agents were tested over a range starting from a high concentration at or near the clinical Cmax and decreasing in half-log increments. If the clinical Cmax for an agent had not been determined, the highest concentration tested was 10 microM.
Cell Lines. The patient-derived cancer cell (PDC) lines: 292921-168-R-J2-PDC, K24384-001-R-PDC, and 521955-158-R2-J5-PDC pancreatic carcinomas, 556581-035-R-J1 ovarian carcinoma, 324938-238-R-J1-PDC, 855422-203-R-J1-PDC and 883617-216-R-J1-PDC urothelial bladder carcinomas, 743489-274-T-PDC renal cell carcinoma, 138582-R-J1 Merkel cell tumor, K60290-347-R-J1 and K57222-313-R-J1-PDC glioblastomas, 653999-131-R-J2-PDC, LG0703-F948-PDC, and 349418-098-R-PDC non-small cell lung carcinomas, 885512-296-R-J2-PDC, 171881-019-R-J1-PDC breast carcinomas and 186277-243-T-J2-PDC and 233499-124-R-J2-PDC colon carcinomas were obtained from the NCI Patient-Derived Models Repository (PDMR, https://pdmr.cancer.gov). The established cell lines NCI/ADR-RES (RRID:CVCL_14520 and OVCAR-5 (RRID:CVCL_1628) ovarian carcinomas, 786-O (RRID:CVCL_1051) and A498 (RRID:CVCL_A498) renal cell carcinoma, NCI-H211 (ATCC, cat. CRL-5824; RRID:CVCL_1529), NCI-H196 (ATCC, cat. CRL-5823, RRID:CVCL_1509), SW 1271 (ATCC, cat. CRL-2177, RRID:CVCL_1716) and NCI-H1876 (ATCC, cat. CRL-5902, RRID:CVCL_1503) small cell lung carcinomas, MDA-MB-231 (RRID:CVCL_0062) and MDA-MB-468 (RRID:CVCL_0419)breast carcinomas (10-12). Pooled donor human umbilical vein endothelial cells (HUVEC, Lonza, cat. CC-2519) and human mesenchymal stem cells (hMSC, Lonza, cat. PT-2501) were purchased from Lonza (Walkersville, MD).
Cell Culture. All cells were maintained in an incubator at 37 degrees C and 5% CO2 with 95% humidity. The PDC lines were cultured according to standard operating procedures established by the NCI PDMR (https://pdmr.cancer.gov). Briefly all PDCs were thawed and cultured in Matrigel-coated flasks prepared with a working solution of 1X Ham's F-12 nutrient mix, without supplementation (Invitrogen, Waltham, MA, cat. 11765054), 100 U/mL penicillin-streptomycin (Invitrogen, cat. 15140122), and 2.5% Matrigel (Corning Inc., Corning, NY, cat. 354248) for the first three passages. […]

[1] = second compound 0.1 µM, first compound 0.00316 µM
[2] = second compound 0.1 µM, first compound 0.01 µM
[3] = second compound 0.1 µM, first compound 0.0316 µM
[4] = second compound 0.1 µM, first compound 0.1 µM
[5] = second compound 0.316 µM, first compound 0.00316 µM
[6] = second compound 0.316 µM, first compound 0.01 µM
[7] = second compound 0.316 µM, first compound 0.0316 µM
[8] = second compound 0.316 µM, first compound 0.1 µM
[9] = second compound 1 µM, first compound 0.00316 µM
[10] = second compound 1 µM, first compound 0.01 µM
[11] = second compound 1 µM, first compound 0.0316 µM
[12] = second compound 1 µM, first compound 0.1 µM
[13] = second compound 3.16 µM, first compound 0.00316 µM
[14] = second compound 3.16 µM, first compound 0.01 µM
[15] = second compound 3.16 µM, first compound 0.0316 µM
[16] = second compound 3.16 µM, first compound 0.1 µM
[17] = second compound 10 µM, first compound 0.00316 µM
[18] = second compound 10 µM, first compound 0.01 µM
[19] = second compound 10 µM, first compound 0.0316 µM
[20] = second compound 10 µM, first compound 0.1 µM

CC[C@@]1(O)C(=O)OCc2c1cc1n(c2=O)Cc2cc3c(CN(C)C)c(O)ccc3nc2-1 + NC1CC1c1ccc(-c2cccc(O)c2)cc1
IC50 (second compound 0.1 µM): 0.472 nM
IC50 (second compound 0.316 µM): 0.4 nM
IC50 (second compound 1 µM): 0.333 nM
IC50 (second compound 3.16 µM): < 0.316 nM
IC50 (second compound 10 µM): < 0.316 nM
viability, T/C (second compound 0.1 µM, first compound 0.000316 µM): 69.9%
viability, T/C (second compound 0.1 µM, first compound 0.001 µM): 12.8%
viability, T/C [1]: 4.7%
viability, T/C [2]: 4.95%
viability, T/C [3]: 3.81%
viability, T/C [4]: 2.69%
viability, T/C (second compound 0.316 µM, first compound 0.000316 µM): 60%
viability, T/C (second compound 0.316 µM, first compound 0.001 µM): 12%
viability, T/C [5]: 6.18%
viability, T/C [6]: 4.37%
viability, T/C [7]: 4.53%
viability, T/C [8]: 2.25%
viability, T/C (second compound 1 µM, first compound 0.000316 µM): 51.9%
viability, T/C (second compound 1 µM, first compound 0.001 µM): 11.9%
viability, T/C [9]: 5.4%
viability, T/C [10]: 3.69%
viability, T/C [11]: 4.13%
viability, T/C [12]: 3.19%
viability, T/C (second compound 3.16 µM, first compound 0.000316 µM): 38.7%
viability, T/C (second compound 3.16 µM, first compound 0.001 µM): 11.8%
viability, T/C [13]: 5.33%
viability, T/C [14]: 5.16%
viability, T/C [15]: 5.02%
viability, T/C [16]: 2.67%
viability, T/C (second compound 10 µM, first compound 0.000316 µM): 44.5%
viability, T/C (second compound 10 µM, first compound 0.001 µM): 15.3%
viability, T/C [17]: 4.98%
viability, T/C [18]: 5.88%
viability, T/C [19]: 5.04%
viability, T/C [20]: 2.36%

COc1cc(C2c3cc4c(cc3C(OC3OC5COC(C)OC5C(O)C3O)C3COC(=O)C23)OCO4)cc(OC)c1O (stereo not given) + NC1CC1c1ccc(-c2cccc(O)c2)cc1
IC50 (second compound 0.1 µM): < 9.49 nM
IC50 (second compound 0.316 µM): < 9.49 nM
IC50 (second compound 1 µM): < 9.49 nM
IC50 (second compound 3.16 µM): < 9.49 nM
IC50 (second compound 10 µM): < 9.49 nM
viability, T/C (second compound 0.1 µM, first compound 0.00949 µM): 43.9%
viability, T/C (second compound 0.1 µM, first compound 0.03 µM): 11.5%
viability, T/C (second compound 0.1 µM, first compound 0.0949 µM): 4.34%
viability, T/C (second compound 0.1 µM, first compound 0.3 µM): 5.07%
viability, T/C (second compound 0.1 µM, first compound 0.949 µM): 5.27%
viability, T/C (second compound 0.1 µM, first compound 3 µM): 4.24%
viability, T/C (second compound 0.316 µM, first compound 0.00949 µM): 38.7%
viability, T/C (second compound 0.316 µM, first compound 0.03 µM): 11.5%
viability, T/C (second compound 0.316 µM, first compound 0.0949 µM): 4.54%
viability, T/C (second compound 0.316 µM, first compound 0.3 µM): 4.97%
viability, T/C (second compound 0.316 µM, first compound 0.949 µM): 4.77%
viability, T/C (second compound 0.316 µM, first compound 3 µM): 4.76%
viability, T/C (second compound 1 µM, first compound 0.00949 µM): 35.6%
viability, T/C (second compound 1 µM, first compound 0.03 µM): 10.3%
viability, T/C (second compound 1 µM, first compound 0.0949 µM): 6.12%
viability, T/C (second compound 1 µM, first compound 0.3 µM): 4.33%
viability, T/C (second compound 1 µM, first compound 0.949 µM): 3.45%
viability, T/C (second compound 1 µM, first compound 3 µM): 4.65%
viability, T/C (second compound 3.16 µM, first compound 0.00949 µM): 29.2%
viability, T/C (second compound 3.16 µM, first compound 0.03 µM): 7.68%
viability, T/C (second compound 3.16 µM, first compound 0.0949 µM): 5.57%
viability, T/C (second compound 3.16 µM, first compound 0.3 µM): 5.22%
viability, T/C (second compound 3.16 µM, first compound 0.949 µM): 5.76%
viability, T/C (second compound 3.16 µM, first compound 3 µM): 3.92%
viability, T/C (second compound 10 µM, first compound 0.00949 µM): 24.8%
viability, T/C (second compound 10 µM, first compound 0.03 µM): 9.09%
viability, T/C (second compound 10 µM, first compound 0.0949 µM): 5.19%
viability, T/C (second compound 10 µM, first compound 0.3 µM): 4.7%
viability, T/C (second compound 10 µM, first compound 0.949 µM): 5%
viability, T/C (second compound 10 µM, first compound 3 µM): 4.52%

Nc1ncn(C2CC(O)C(CO)O2)c(=O)n1 (stereo not given) + NC1CC1c1ccc(-c2cccc(O)c2)cc1
IC50 (second compound 0.1 µM): < 3.16 nM
IC50 (second compound 0.316 µM): < 3.16 nM
IC50 (second compound 1 µM): < 3.16 nM
IC50 (second compound 3.16 µM): < 3.16 nM
IC50 (second compound 10 µM): < 3.16 nM
viability, T/C [1]: 23.1%
viability, T/C [2]: 11.9%
viability, T/C [3]: 5.65%
viability, T/C [4]: 3.94%
viability, T/C (second compound 0.1 µM, first compound 0.316 µM): 3.2%
viability, T/C (second compound 0.1 µM, first compound 1 µM): 4.03%
viability, T/C [5]: 18.7%
viability, T/C [6]: 9.82%
viability, T/C [7]: 6.26%
viability, T/C [8]: 4.33%
viability, T/C (second compound 0.316 µM, first compound 0.316 µM): 3.7%
viability, T/C (second compound 0.316 µM, first compound 1 µM): 4.51%
viability, T/C [9]: 17.9%
viability, T/C [10]: 10.6%
viability, T/C [11]: 5.51%
viability, T/C [12]: 4%
viability, T/C (second compound 1 µM, first compound 0.316 µM): 4.16%
viability, T/C (second compound 1 µM, first compound 1 µM): 4.12%
viability, T/C [13]: 24.6%
viability, T/C [14]: 13.7%
viability, T/C [15]: 6.51%
viability, T/C [16]: 4.45%
viability, T/C (second compound 3.16 µM, first compound 0.316 µM): 3.03%
viability, T/C (second compound 3.16 µM, first compound 1 µM): 4.93%
viability, T/C [17]: 22.7%
viability, T/C [18]: 17.1%
viability, T/C [19]: 9.21%
viability, T/C [20]: 5.28%
viability, T/C (second compound 10 µM, first compound 0.316 µM): 3.35%
viability, T/C (second compound 10 µM, first compound 1 µM): 3.79%
